Test systems include Escherichia coli 780; Escherichia coli 850; Pseudomonas aeruginosa; Escherichia coli; Bacillus subtilis; Staphylococcus aureus; Enterobacter cloacae.
Holding throughout (assay): ≥ marks a high value that may be exact or a test limit, other limits are often not marked, values filed in µg/mL are converted to µM
In test [1] the test system is Escherichia coli ATCC 25922.
For test [2], the system named is Enterococcus faecium NTCC 12697.
Test [3] relates to Staphylococcus aureus ATCC 25923.
For test [4], the system named is Pseudomonas aeruginosa CMCCB 10104.
The subject of test [5] is Klebsiella pneumoniae ATCC 43816.
Test [6] deals with Pseudomonas aeruginosa ATCC 9027.
Test [7] has as its system Acinetobacter baumannii ATCC BAA-747.
Test [8] has as its system Candida albicans ATCC 2002.
Test [9] concerns Escherichia coli ATCC 8739.
The subject of test [10] is Staphylococcus aureus NCTC 12493.
Test [11] concerns Escherichia coli NCTC 13846.
In test [12] the test system is Staphylococcus aureus ATCC 6538.
The subject of test [13] is Escherichia coli ATCC BAA-2340.
For test [14], the system named is Candida albicans ATCC 10231.
Test [15] relates to Escherichia coli ATCC 25726.
Test [16] has as its system Batrachochytrium dendrobatidis JEL-197.
Test [17] relates to Acinetobacter baumannii I NM8.
In test [18] the test system is Pseudomonas aeruginosa ATCC 27853.
Test [19] deals with Acinetobacter baumannii ATCC 19606.
For test [20], the system named is Acinetobacter baumannii 1980.
Test [21] concerns Acinetobacter baumannii 4956.
For test [22], the system named is Staphylococcus aureus 725.
Test [23] concerns Staphylococcus aureus 936.
In test [24] the test system is Klebsiella pneumoniae ATCC 700603.
Test [25] concerns Pseudomonas aeruginosa 9132.
For test [26], the system named is Pseudomonas aeruginosa 2760.
The test system of test [27] is Acinetobacter baumannii 2982.
Test [28] has as its system Bacillus subtilis ATCC 6633.
Test [29] has as its system Candida albicans ATCC 20032.
In test [30] the test system is Enterococcus faecalis NCTC 12697.
In test [31] the test system is Candida albicans NCTC 3179.
Test [32] relates to Pseudomonas aeruginosa PAO239.
Test [33] relates to Streptococcus mutans ATCC 10449.
For test [34], the system named is Fusobacterium nucleatum NCTC 10562.
Test [35] relates to Candida albicans ATCC 90028.
Test [36] deals with Salmonella enterica subsp. enterica serovar Typhi.

Values after ≈ are worked out from the molar mass of the structure shown. Some results are limits rather than exact numbers.

As for `CC[C@H](C)[C@H](NC(=O)[C@H](CC(N)=O)NC(=O)[C@@H](NC(=O)[C@H](C)N)C(C)C)C(=O)N1CCC[C@H]1C(=O)N[C@@H](Cc1ccccc1)C(=O)N[C@@H](CCCCN)C(=O)N[C@H](C(=O)N[C@@H](Cc1cnc[nH]1)C(=O)N[C@@H](Cc1ccccc1)C(=O)N[C@@H](CCCN=C(N)N)C(=O)N[C@H]1CSSC[C@@H](C(=O)O)NC(=O)[C@H](Cc2ccccc2)NC(=O)[C@H](C)NC(=O)[C@H](C)NC(=O)[C@H](CCCCN)NC1=O)C(C)C` [AVNIPFKVHFRCKAAFC], the MIC (in general, the lowest concentration found to suppress growth) was 10.4 µM (≈ 20.2 µg/mL) in test [1]; no less than 512 µM in [2]; 5.18 µM (≈ 10.1 µg/mL) in test [3]; 20.7 µM (≈ 40.4 µg/mL) in test [4]; no less than 64 µM in test [5]; 64 µM (≈ 125 µg/mL) in test [6]. In addition, the minimum inhibitory concentration (MIC) in test [7] is no less than 512 µM; in [8], 10.4 µM (≈ 20.2 µg/mL); in test [9], no less than 32 µM; in test [10], no less than 256 µM; in [11], no less than 32 µM; in test [12] it was greater than 512 µM. The minimal inhibitory concentration (MIC) was no less than 32 µM in [13] and greater than 512 µM in test [14].
With `CSCC[C@H](NC(=O)[C@H](C)NC(=O)[C@H](CC(C)C)NC(=O)[C@@H]1CCCN1C(=O)[C@H](CC(C)C)NC(=O)[C@@H](N)Cc1ccccc1)C(=O)N[C@@H](C)C(=O)N[C@@H](CC(C)C)C(=O)NCC(=O)N[C@@H](CCCCN)C(=O)N[C@@H](CC(C)C)C(=O)N[C@@H](CC(C)C)C(N)=O` [FLPLAMALGKLL], the MIC was no less than 160 µM in test [15], 40 µM (≈ 51.4 µg/mL) in [3] and no less than 100 µM in test [16].
Take `CC(C)C[C@H](NC(=O)[C@@H](NC(=O)[C@H](CC(N)=O)NC(=O)[C@H](C)NC(=O)CNC(=O)[C@H](CC(C)C)NC(=O)[C@H](CCCN=C(N)N)NC(=O)[C@H](CC(C)C)NC(=O)[C@H](C)NC(=O)[C@H](CCCCN)NC(=O)CNC(=O)[C@H](CC(C)C)NC(=O)[C@H](CC(C)C)NC(=O)[C@H](CO)NC(=O)CNC(=O)[C@H](Cc1ccccc1)NC(=O)CN)C(C)C)C(N)=O` [GFGSLLGKALRLGANVL]: the MIC in test [17] is 3 µM (≈ 5.06 µg/mL); in test [15], 6 µM (≈ 10.1 µg/mL); in test [18], 25 µM (≈ 42.1 µg/mL); in test [1], 4.74 µM (≈ 8 µg/mL); in test [19], 4.74 µM (≈ 8 µg/mL); in test [20], 9.49 µM (≈ 16 µg/mL). In addition, the MIC against Escherichia coli 780 came out at 4.74 µM (≈ 8 µg/mL); in [21] it was 9.49 µM (≈ 16 µg/mL); in the test on Escherichia coli 850, 9.49 µM (≈ 16 µg/mL); in [22], 4.74 µM (≈ 8 µg/mL); in [23], 19 µM (≈ 32 µg/mL); in [24] it was 25 µM (≈ 42.1 µg/mL). Besides, the MIC in [25] was no less than 38 µM; in test [26] it was no less than 75.9 µM; in [27], 2.37 µM (≈ 4 µg/mL).
With `CC[C@H](C)[C@H](NC(=O)CN)C(=O)NCC(=O)N[C@H](C(=O)N[C@@H](CCCCN)C(=O)N[C@H](C(=O)N[C@@H](CC(C)C)C(=O)NCC(=O)NCC(=O)N[C@H](C(=O)N[C@@H](CCCCN)C(=O)N[C@@H](C)C(=O)N[C@@H](C)C(=O)N[C@@H](CC(C)C)C(=O)N[C@@H](CCCCN)C(=O)NCC(=O)N[C@@H](C)C(=O)N[C@@H](CC(C)C)C(=O)N[C@@H](CCCCN)C(=O)N[C@@H](CCC(=O)O)C(=O)N[C@@H](CC(C)C)C(=O)N[C@@H](C)C(=O)N[C@@H](CO)C(=O)N[C@H](C(=O)N[C@@H](Cc1ccc(O)cc1)C(=O)N[C@H](C(=O)N[C@@H](CC(N)=O)C(N)=O)C(C)C)[C@@H](C)O)C(C)C)[C@@H](C)CC)[C@@H](C)O` [GIGTKILGGVKAALKGALKELASTYVN], the minimal inhibitory concentration (MIC) in test [1] is 7.03 µM (≈ 18.8 µg/mL); in test [3] it was 3.52 µM (≈ 9.4 µg/mL); in test [28], 28.1 µM (≈ 75 µg/mL); in test [29] it was no less than 37.4 µM.
For the compound `CC[C@H](C)[C@H](NC(=O)CNC(=O)CNC(=O)[C@@H](NC(=O)[C@H](Cc1ccccc1)NC(=O)[C@H](C)NC(=O)[C@H](CCCCN)NC(=O)CNC(=O)[C@H](Cc1ccccc1)NC(=O)[C@H](CCCCN)NC(=O)CNC(=O)[C@H](CC(C)C)NC(=O)[C@H](CO)NC(=O)[C@H](Cc1cnc[nH]1)NC(=O)[C@H](C)NC(=O)[C@H](Cc1ccccc1)NC(=O)[C@H](CCC(=O)O)NC(=O)[C@H](CCCCN)NC(=O)[C@@H](NC(=O)CN)[C@@H](C)CC)C(C)C)C(=O)N[C@@H](CC(C)C)C(=O)N[C@@H](CC(N)=O)C(=O)N[C@@H](CCC(N)=O)C(=O)O` [GIKEFAHSLGKFGKAFVGGILNQ], the MIC was no less than 50 µM in test [15]; greater than 100 µM in [18]; greater than 200 µM in test [1]; greater than 200 µM in test [3]; no less than 100 µM in test [30]; no less than 100 µM in test [31]. In addition, the MIC in [32] was no less than 100 µM; in test [33] it was no less than 50 µM; in test [34], 12.5 µM (≈ 30.2 µg/mL).
`CC(C)C[C@H](NC(=O)[C@H](CCCCN)NC(=O)[C@H](CCCN=C(N)N)NC(=O)[C@H](Cc1ccccc1)NC(=O)[C@H](Cc1ccccc1)NC(=O)[C@H](CCCCN)NC(=O)[C@H](CCCCN)NC(=O)[C@H](Cc1ccccc1)NC(=O)[C@H](CCCN=C(N)N)NC(=O)[C@H](CCCCN)NC(=O)[C@@H](NC(=O)[C@@H](N)CC(C)C)C(C)C)C(=O)N[C@@H](CCCCN)C(=O)N[C@@H](CCCCN)C(=O)N[C@@H](CO)C(=O)N[C@H](C(N)=O)C(C)C` [LVKRFKKFFRKLKKSV]: the minimal inhibitory concentration (MIC) was no less than 62.4 µM in test [35]; 31.2 µM (≈ 64 µg/mL) in [18]; 7.79 µM (≈ 16 µg/mL) in [1]; 7.79 µM (≈ 16 µg/mL) with Pseudomonas aeruginosa; 15.6 µM (≈ 32 µg/mL) against Escherichia coli; 31.2 µM (≈ 64 µg/mL) against Bacillus subtilis. Moreover, the minimal inhibitory concentration (MIC) in [3] was 1.95 µM (≈ 4 µg/mL); with Staphylococcus aureus it was 31.2 µM (≈ 64 µg/mL); in test [36] it was 1.95 µM (≈ 4 µg/mL); with Enterobacter cloacae, 15.6 µM (≈ 32 µg/mL).

(Values after DBAASP.)
